Source: patent publication US20020132220A1, “Use of selectin antagonists in organ preservation solutions” (priority 2000, published 2002)
Where a name gives a salt, the structure may show the parent alone.

How the values were obtained:
rat kidney [1] = assay: Syngeneic rat kidney transplantation (Lewis to Lewis) after flushing the kidney with perfusate; ischemia/reperfusion injury; format: in vivo; settings: for Blood Urea Nitrogen / Serum Creatinine / GFR: syngeneic transplantation; for GFR: 4° C., 30 min on ice
Experimental: (§1) To determine the effects of bimosiamose on the ischemia/reperfusion component of transplant injury, the following experiment was performed. To test bimosiamose solutions, a rat kidney is flushed with a solution containing bimosiamose (compound 1, 1,6-bis-(3-(3-carbomethylphenyl)-4-(2-α-D-mannopyranosyloxy)phenyl)hexane disodium salt, prepared according to the procedure described in U.S. Pat. No. 5,919,768) upon harvest from a donor and prior to placement into a recipient, to determine whether or not there is any protective effect. Rats for both examples were supplied by Harlan. A syngeneic transplantation model (Lewis rat to Lewis rat) was utilized. In this model, the immune system mediated rejection component is not relevant since the donor and recipient are of similar genetic background (syngeneic). In this experiment, test bimosiamose solutions were made up in a concentration of 100 mg/ml in phosphate-buffered saline solution, at a pH of 7.4. Test amounts of bimoisamose solution (as indicated in column 1 of Table 1) were added to Collins solution, to form the test perfusate solution. The Collins solution was purchased from Baxter, and contained 740 mg dibasic potassium phosphate, 205 mg monobasic potassium phosphate, 112 mg potassium chloride and 84 mg sodium bicarbonate per 100 mL solution, at pH 7.4. The test perfusate solution was cooled to a temperature of 4° C., and then 2 ml was utilized to perfuse the organ, which was afterwards maintained on ice for thirty minutes. Perfusion pressure was at or below physiologic pressure during the perfusion.
(§2) Following the 30 minute cold-temperature perfusion, transplantation was performed by transplanting a graft organ using end-to-end anastomosis of the renal artery, vein and ureter, with a simultaneous contralateral nephrectomy, wherein when the graft fails, the recipient does shortly thereafter.
This injury is the result of 30 minutes of cold ischemia with an additional 30 minutes of warm ischemia during the surgical re-anastomosis. N in the first column of Table 1 indicates sample size, i.e.—when N=6, six animals were tested. […] These observations are supported by reductions in serum creatinine and blood urea nitrogen (see Table 1). Therefore, Table 1 illustrates a statistically significant improvements associated with bimosiamose treatment.

rat kidney [2] = assay: Allogeneic rat kidney transplantation (Lewis to ACI) after flushing the kidney with perfusate; graft/recipient survival; format: in vivo, Lewis rats to ACI rats; settings: for Survival: allogeneic transplantation, no immunosuppression
Experimental: as §1, §2
The procedure described in Example 1 was also utilized to determine what effect bimosiamose solutions would have when transplantation between donor and recipient were not matched for histocompatibility (test rats are allogenic). […]

[3] = kidney perfused with 0.5 mg/ml in Collins solution
[4] = kidney perfused with 1.0 mg/ml in Collins solution

## O=C(O)Cc1cccc(-c2cc(CCCCCCc3ccc(OC4OC(CO)C(O)C(O)C4O)c(-c4cccc(CC(=O)O)c4)c3)ccc2OC2OC(CO)C(O)C(O)C2O)c1 [Cmpd. 1, 1,6-bis-(3-(3-carbomethylphenyl)-4-(2-α-D-mannopyranosyloxy)phenyl)hexane disodium salt]
Rat kidney [1]; flushing the organ with a solution containing 1 mg/2 ml or 2 mg/2 ml
  Renal function (in words): preservation of renal function
Rat kidney [1]; [3]
  Blood Urea Nitrogen: 49.8 ± 24.2 mg/dL
  Serum Creatinine: 0.62 ± 0.23 mg/dL
  GFR: 0.70 ± 0.37 mL/min
Rat kidney [1]; [4]
  Blood Urea Nitrogen: 32.0 ± 4.6 mg/dL
  Serum Creatinine: 0.48 ± 0.08 mg/dL
  GFR: 0.91 ± 0.08 mL/min
Rat kidney [2]; kidney flushed with 0.5 mg/ml
  Survival: 18.50 ± 6.45 days
Rat kidney [2]; kidney flushed with 1.0 mg/ml
  Survival: 30.25 ± 13.25 days
Rat kidney [2]; renal allografts flushed with solution, without standard immunosuppressive agents
  Graft function/survival (in words): dose-related preservation of graft function/survival
